Measured values reported in ChEMBL document CHEMBL3112452, “Neutral β-Lactams Inactivate High Molecular Mass Penicillin-Binding Proteins of Class B1, Including PBP2a of MRSA” (ACS Med Chem Lett, 2014).
Values after ≈ are worked out from the molar mass of the structure shown.

Assays:
[1] = tested on: Staphylococcus epidermidis; assay: Antimicrobial activity against wild type Staphylococcus epidermidis ATCC 12228 after 18 hrs by serial dilution method; type: functional; details: ATCC 12228, 18 h
[2] = Inhibition of Escherichia coli PBP4 after 30 mins by SDS-PAGE
Escherichia coli = assay: Antimicrobial activity against wild type Escherichia coli MM 294 after 18 hrs by serial dilution method; type: functional; details: MM 294, 18 h
[3] = target: T1, D-alanyl-D-alanine carboxypeptidase DacA (Bacillus subtilis (strain 168), UniProt P08750); assay: Inhibition of Bacillus subtilis 168 PBP5 after 30 mins by SDS-PAGE; design: species or system Bacillus subtilis subsp. subtilis str. 168
T1 sequence (P08750 whole entry): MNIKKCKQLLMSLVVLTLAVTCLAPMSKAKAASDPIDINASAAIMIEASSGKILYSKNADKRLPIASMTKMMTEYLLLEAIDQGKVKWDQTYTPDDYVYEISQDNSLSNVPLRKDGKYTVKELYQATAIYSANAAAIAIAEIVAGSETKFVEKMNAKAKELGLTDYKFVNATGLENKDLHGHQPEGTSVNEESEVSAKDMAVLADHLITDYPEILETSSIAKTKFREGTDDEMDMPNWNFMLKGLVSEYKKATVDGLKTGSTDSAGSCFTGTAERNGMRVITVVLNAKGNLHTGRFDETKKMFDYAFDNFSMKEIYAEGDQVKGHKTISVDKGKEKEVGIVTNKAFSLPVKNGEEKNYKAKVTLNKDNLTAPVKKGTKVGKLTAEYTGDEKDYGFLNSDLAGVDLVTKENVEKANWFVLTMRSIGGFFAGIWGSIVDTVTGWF

[4] = target: T2, Penicillin-binding protein 4 (Bacillus subtilis (strain 168), UniProt P40750); assay: Inhibition of Bacillus subtilis 168 PBP4 after 30 mins by SDS-PAGE; design: species or system Bacillus subtilis subsp. subtilis str. 168
T2 sequence (P40750 whole entry): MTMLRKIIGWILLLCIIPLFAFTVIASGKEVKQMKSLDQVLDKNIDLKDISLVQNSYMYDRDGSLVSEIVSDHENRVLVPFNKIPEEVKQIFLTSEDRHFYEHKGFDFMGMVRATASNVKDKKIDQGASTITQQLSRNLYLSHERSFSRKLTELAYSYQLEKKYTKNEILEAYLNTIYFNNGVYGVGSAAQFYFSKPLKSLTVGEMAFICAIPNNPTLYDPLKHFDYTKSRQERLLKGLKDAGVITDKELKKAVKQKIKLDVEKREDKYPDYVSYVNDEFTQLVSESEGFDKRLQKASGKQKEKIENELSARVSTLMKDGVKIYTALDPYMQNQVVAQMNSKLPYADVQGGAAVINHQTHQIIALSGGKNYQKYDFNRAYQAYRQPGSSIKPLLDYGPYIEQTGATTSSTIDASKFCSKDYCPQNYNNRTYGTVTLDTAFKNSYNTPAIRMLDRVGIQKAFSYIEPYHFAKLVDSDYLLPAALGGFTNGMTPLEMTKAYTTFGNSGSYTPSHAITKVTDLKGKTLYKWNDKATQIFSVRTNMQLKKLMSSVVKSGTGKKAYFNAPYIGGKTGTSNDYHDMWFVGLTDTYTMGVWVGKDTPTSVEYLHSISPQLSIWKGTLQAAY

[5] = Inhibition of Bacillus subtilis 168 PBP1 after 30 mins by SDS-PAGE; design: species or system Bacillus subtilis subsp. subtilis str. 168
[6] = Inhibition of Escherichia coli PBP5/6 after 30 mins by SDS-PAGE
[7] = Inhibition of Staphylococcus aureus PBP2a
[8] = target: T3, Penicillin-binding protein 3 (Bacillus subtilis (strain 168), UniProt P42971); assay: Inhibition of Bacillus subtilis 168 PBP3 after 30 mins by SDS-PAGE; design: species or system Bacillus subtilis subsp. subtilis str. 168
T3 sequence (P42971 whole entry): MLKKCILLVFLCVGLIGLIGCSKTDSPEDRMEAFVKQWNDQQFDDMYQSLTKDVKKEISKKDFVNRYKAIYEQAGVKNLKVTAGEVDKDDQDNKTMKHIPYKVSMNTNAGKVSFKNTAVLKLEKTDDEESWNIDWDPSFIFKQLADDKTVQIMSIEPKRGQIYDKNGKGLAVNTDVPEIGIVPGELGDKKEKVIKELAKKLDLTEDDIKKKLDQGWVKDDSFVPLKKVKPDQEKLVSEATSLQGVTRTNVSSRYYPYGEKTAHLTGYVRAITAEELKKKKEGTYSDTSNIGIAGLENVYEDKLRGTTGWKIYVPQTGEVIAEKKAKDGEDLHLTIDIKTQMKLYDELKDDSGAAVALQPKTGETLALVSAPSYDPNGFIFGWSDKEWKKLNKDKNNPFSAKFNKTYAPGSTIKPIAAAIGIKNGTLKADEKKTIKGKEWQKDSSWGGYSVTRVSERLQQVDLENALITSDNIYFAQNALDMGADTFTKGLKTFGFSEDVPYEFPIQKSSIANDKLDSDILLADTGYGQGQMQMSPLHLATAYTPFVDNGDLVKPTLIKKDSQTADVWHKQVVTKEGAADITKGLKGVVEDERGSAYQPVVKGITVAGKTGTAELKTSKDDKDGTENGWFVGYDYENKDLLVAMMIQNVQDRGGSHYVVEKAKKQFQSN

[9] = Inhibition of Bacillus subtilis 168 PBP2 after 30 mins by SDS-PAGE; design: species or system Bacillus subtilis subsp. subtilis str. 168
[10] = Inhibition of Escherichia coli PBP3 after 30 mins by SDS-PAGE
[11] = Inhibition of Escherichia coli BL21(DE3) PBP2 after 30 mins by SDS-PAGE
Bacillus subtilis = assay: Antimicrobial activity against wild type Bacillus subtilis 168 after 18 hrs by serial dilution method; type: functional; details: subsp. subtilis str. 168, 18 h
Bacillus licheniformis = assay: Antimicrobial activity against Bacillus licheniformis NRS 1264 after 18 hrs by serial dilution method; type: functional; details: NRS 1264, 18 h
[12] = Inhibition of Escherichia coli PBP1a/1b after 30 mins by SDS-PAGE

| MIC (Bacillus subtilis) [µM] | kinact/Ki [5] [M⁻¹ s⁻¹] | kinact/Ki [9] [M⁻¹ s⁻¹] | SMILES | MIC [1] [µM] | Ki [2] [M⁻¹ s⁻¹] | MIC (Escherichia coli) [µM] | Ki [3] [M⁻¹ s⁻¹] | Ki [4] [M⁻¹ s⁻¹] | Ki [5] [M⁻¹ s⁻¹] | Ki [6] [M⁻¹ s⁻¹] | Second-order inactivation rate constant (kinact/Ki) [7] [M⁻¹ s⁻¹] | Ki [8] [M⁻¹ s⁻¹] | Ki [9] [M⁻¹ s⁻¹] | Ki [10] [M⁻¹ s⁻¹] | Ki [11] [M⁻¹ s⁻¹] | MIC (Bacillus licheniformis) [µM] | Ki [12] [M⁻¹ s⁻¹] |
| --- | --- | --- | --- | --- | --- | --- | --- | --- | --- | --- | --- | --- | --- | --- | --- | --- | --- |
| 1400 (≈ 491 µg/mL) | 110000 | 19000 | CC1(C)S[C@@H]2[C@H](NC(=O)COc3ccccc3)C(=O)N2[C@H]1C(=O)O [PENICILLIN V] | 370 (≈ 130 µg/mL) | 3200 | 750 (≈ 263 µg/mL) | 620 | – | – | 96 | – | 28 | – | 420 | 128 | 1500 (≈ 526 µg/mL) | 184 |
| – | – | – | CC(=O)OCC1=C(C(N)=O)N2C(=O)[C@@H](NC(=O)Cc3cccs3)[C@H]2SC1 | – | – | – | – | – | – | – | 1.3 | – | – | – | – | – | – |
| 25 (≈ 9.11 µg/mL) | – | – | COC(=O)[C@@H]1N2C(=O)[C@@H](NC(=O)COc3ccccc3)[C@H]2SC1(C)C | – | – | – | – | – | – | – | 1.5 | – | – | – | – | – | – |
| – | – | – | CC1=CN2C(=O)[C@@H](NC(=O)[C@H](N)c3ccccc3)[C@H]2SC1 | – | – | – | – | – | – | – | 0.34 | – | – | – | – | – | – |

| SMILES | MIC (Bacillus subtilis) [µM] | kinact/Ki [5] [M⁻¹ s⁻¹] | kinact/Ki [9] [M⁻¹ s⁻¹] | MIC [1] [µM] | Ki [2] [M⁻¹ s⁻¹] | MIC (Escherichia coli) [µM] | Ki [3] [M⁻¹ s⁻¹] | Ki [4] [M⁻¹ s⁻¹] | Ki [5] [M⁻¹ s⁻¹] | Ki [6] [M⁻¹ s⁻¹] | Second-order inactivation rate constant (kinact/Ki) [7] [M⁻¹ s⁻¹] | Ki [8] [M⁻¹ s⁻¹] | Ki [9] [M⁻¹ s⁻¹] | Ki [10] [M⁻¹ s⁻¹] | Ki [11] [M⁻¹ s⁻¹] | MIC (Bacillus licheniformis) [µM] | Ki [12] [M⁻¹ s⁻¹] |
| --- | --- | --- | --- | --- | --- | --- | --- | --- | --- | --- | --- | --- | --- | --- | --- | --- | --- |
| CC1(C)S[C@@H]2[C@H](NC(=O)COc3ccccc3)C(=O)N2[C@H]1C(N)=O | 2.3 (≈ 0.804 µg/mL) | – | – | 95 (≈ 33.2 µg/mL) | 30 | 10000 (≈ 3490 µg/mL) | 17 | 190 | 340 | 0.6 | 2 | 5.3 | 440 | 18 | 1.5 | 1.5 (≈ 0.524 µg/mL) | 0.74 |
